Laboratory results taken from the NIST ThermoML archive (doi:10.1016/j.fluid.2011.03.008).

Columns and labels:
[1] = for surface tension liquid-gas: Plate tensiometer; for mass density: 101.33 kPa, Liquid, Vibrating tube method
[2] = xn = mol fraction of the nth substance listed; conditions: 293.15 K; for mass density: 101 kPa, Liquid, Vibrating tube method

CCn1cc[n+](C)c1.COS(=O)(=O)[O-] [1-ethyl-3-methylimidazolium methylsulfate]
[1]
Conditions | mass density [kg/m3] | surface tension liquid-gas [mN/m]
283.15 K | 1273.4 | 53.54
288.15 K | 1270.1 | 53.28
293.15 K | 1267 | 52.99
298.15 K | 1262.9 | 52.62
303.15 K | 1259.4 | 52.32
308.15 K | 1255.8 | 52.03
313.15 K | 1252.9 | 51.72
318.15 K | 1249.9 | 51.44
323.15 K | 1246.9 | 51.07
328.15 K | 1243.5 | 50.68
333.15 K | 1240.3 | 50.41

CCn1cc[n+](C)c1.COS(=O)(=O)[O-] [1-ethyl-3-methylimidazolium methylsulfate] + CCCCO
[2], Ring tensiometer
Conditions | surface tension liquid-gas [mN/m]
x1 = 0.032 | 23.96
x1 = 0.071 | 24.3
x1 = 0.1 | 24.39
x1 = 0.2306 | 25.51
x1 = 0.3 | 26.11
x1 = 0.3996 | 27.13
x1 = 0.4989 | 28.16
x1 = 0.5993 | 28.58
x1 = 0.695 | 28.61
x1 = 0.7864 | 33.18
x1 = 0.9206 | 39.12
x1 = 0.9628 | 43.21
x1 = 1 | 52.62

[2]
Conditions | mass density [kg/m3]
x1 = 0.032 | 837.1
x1 = 0.071 | 868.3
x1 = 0.1 | 890.3
x1 = 0.2306 | 978.5
x1 = 0.3 | 1017.9
x1 = 0.3996 | 1066.8
x1 = 0.4989 | 1109.3
x1 = 0.5993 | 1147.1
x1 = 0.695 | 1179.6
x1 = 0.7864 | 1207.2
x1 = 0.9206 | 1243.6
x1 = 1 | 1262.9

CCn1cc[n+](C)c1.COS(=O)(=O)[O-] [1-ethyl-3-methylimidazolium methylsulfate] + CCO
[2], Plate tensiometer
Conditions | surface tension liquid-gas [mN/m]
x1 = 0.04 | 22.75
x1 = 0.0597 | 23.23
x1 = 0.08 | 23.62
x1 = 0.0999 | 24.08
x1 = 0.2 | 26.08
x1 = 0.3 | 28.59
x1 = 0.4 | 30.09
x1 = 0.5 | 32.19
x1 = 0.5998 | 34.22
x1 = 0.6993 | 38.92
x1 = 0.8005 | 44.18
x1 = 0.9009 | 49.23
x1 = 1 | 52.62

[2]
Conditions | mass density [kg/m3]
x1 = 0.04 | 839.3
x1 = 0.0597 | 862.9
x1 = 0.08 | 885.6
x1 = 0.0999 | 906.5
x1 = 0.2 | 995.1
x1 = 0.3 | 1064.8
x1 = 0.4 | 1113.2
x1 = 0.5 | 1150.2
x1 = 0.5998 | 1179.8
x1 = 0.6993 | 1205.1
x1 = 0.8005 | 1227.1
x1 = 0.9009 | 1246.4
x1 = 1 | 1262.9

CCn1cc[n+](C)c1.COS(=O)(=O)[O-] [1-ethyl-3-methylimidazolium methylsulfate] + CO
[2], Plate tensiometer
Conditions | surface tension liquid-gas [mN/m]
x1 = 0.05 | 24.19
x1 = 0.08 | 25.56
x1 = 0.0995 | 26.19
x1 = 0.2001 | 30.12
x1 = 0.3024 | 33.16
x1 = 0.4012 | 37.21
x1 = 0.4971 | 40.02
x1 = 0.6 | 43.02
x1 = 0.7004 | 45.59
x1 = 0.8003 | 48.06
x1 = 0.8971 | 50.63
x1 = 0.9389 | 51.59
x1 = 1 | 52.62

[2]
Conditions | mass density [kg/m3]
x1 = 0.05 | 883.8
x1 = 0.08 | 928.9
x1 = 0.0995 | 957.2
x1 = 0.2001 | 1061.5
x1 = 0.3024 | 1122.2
x1 = 0.4012 | 1161.3
x1 = 0.4971 | 1189.3
x1 = 0.6 | 1212.1
x1 = 0.7004 | 1228
x1 = 0.8003 | 1242.3
x1 = 0.8971 | 1252.6
x1 = 0.9389 | 1256.7
x1 = 1 | 1262.9

CCCCO [butan-1-ol] + CCn1cc[n+](C)c1.COS(=O)(=O)[O-]
Conditions | surface tension liquid-gas [mN/m]
[2], Ring tensiometer, x2 = 0 | 23.62

Conditions | mass density [kg/m3]
[2], x2 = 0 | 809.6

CCO [ethanol] + CCn1cc[n+](C)c1.COS(=O)(=O)[O-]
Conditions | surface tension liquid-gas [mN/m]
[2], Plate tensiometer, x2 = 0 | 22

Conditions | mass density [kg/m3]
[2], x2 = 0 | 785.7

CO [methanol] + CCn1cc[n+](C)c1.COS(=O)(=O)[O-]
Conditions | surface tension liquid-gas [mN/m]
[2], Plate tensiometer, x2 = 0 | 21.8

Conditions | mass density [kg/m3]
[2], x2 = 0 | 791.2
